Where “and” joins values, the source holds several entries; their conditions need not be identical. Equal entries are not always repeated.
What was measured:
MRC5 = assay: (§1) DNDI: Cytotoxicity against human MRC-5 lung fibroblast cells.
[1] = as §1; settings: IC50
[2] = system: Trypanosoma brucei brucei; assay: microbe, parasite or virus in culture; format: functional, organism-based, STIB 795
Description: DNDI: Inhibition of Human African Trypanosomiasis (HAT), STIB 795, in vitro

COc1ccc(C(NC(=O)C(C)C)c2ccc3cccnc3c2O)cc1OC (stereo not drawn)
IC50 (MRC5): > 4.17 µM | IC50 [1]: 2.29 µM | IC50 [2]: 2.78 µM and 1.08 µM

Cc1ccc2[nH]c3c(c2c1)CCCC3CN (stereo not drawn)
IC50 (MRC5): > 20.8 µM | IC50 [1]: > 10.4 µM | IC50 [2]: 0.664 µM | IC50 ([2]; Trypanosoma brucei, STIB 795): 1.22 µM

CC1=NN(c2cccc(Cl)c2)C(=O)/C1=C\NNC(=O)c1ccccc1
IC50 (MRC5): 4.6 µM | IC50 [1]: > 4.17 µM | IC50 [2]: 1.92 µM | IC50 ([2]; Trypanosoma brucei, STIB 795): 1.49 µM

O=C(CCc1ccccc1)N/N=C/c1ccc(O)c2ncccc12
IC50 (MRC5): > 20.8 µM | IC50 [1]: > 10.4 µM | IC50 [2]: 0.456 µM | IC50 ([2]; Trypanosoma brucei, STIB 795): 0.484 µM

Cc1ccc(-c2cnc3ccccc3[n+]2C)c(C)c1
IC50 (MRC5): > 10.4 µM | IC50 [1]: > 20.8 µM | IC50 [2]: 0.739 µM and 3.32 µM

COc1ccc2[nH]c(C)c(CCNCCC3=C(C)CCCC3(C)C)c2c1
IC50 (MRC5): 4.92 µM | IC50 [1]: 5.93 µM | IC50 [2]: 1.76 µM | IC50 ([2]; Trypanosoma brucei, STIB 795): 1.33 µM

Cc1ccccc1C(O)(Cc1ccccc1)C1CN2CCC1CC2 (stereo not drawn)
IC50 [1]: > 4.17 µM | IC50 ([2]; Trypanosoma brucei, STIB 795): 4.69 µM

Clc1ccc(C[n+]2cc(-c3ccccc3)n3c2CCC3)c(Cl)c1
IC50 [1]: > 41.7 µM | IC50 ([2]; Trypanosoma brucei, STIB 795): 5.23 µM

COc1ccc(C2=C(C)C(=O)C(C)=C(C)C2=O)cc1
IC50 [1]: > 20.8 µM | IC50 ([2]; Trypanosoma brucei, STIB 795): 5.55 µM

CC(C)(C)n1ncc(SC/C(=N\O)c2ccccc2)c(Cl)c1=O
IC50 [1]: > 41.7 µM | IC50 ([2]; Trypanosoma brucei, STIB 795): 2.37 µM

CCCCOc1ccc(CSC(=N)N)cc1
IC50 [1]: > 20.8 µM | IC50 ([2]; Trypanosoma brucei, STIB 795): 5.48 µM

COc1ccc(/C(N)=N/OC(=O)C23CC4CC(CC(C4)C2)C3)cc1OC
IC50 [1]: > 41.7 µM | IC50 ([2]; Trypanosoma brucei, STIB 795): 0.774 µM

CC1(C)CC(=O)C/C(=N/NC(=O)c2cc3ccccc3cc2O)C1
IC50 [1]: > 41.7 µM | IC50 ([2]; Trypanosoma brucei, STIB 795): < 0.1 µM

Cn1cnn(C2CC(=O)C3OCC2O3)c1=S (stereo not drawn)
IC50 [1]: > 20.8 µM | IC50 [2]: 2.07 µM | IC50 ([2]; Trypanosoma brucei, STIB 795): 3.7 µM

COc1ccc2c(c1)S/C(=C/C(=O)c1ccncc1)N2C
IC50 [1]: > 41.7 µM | IC50 ([2]; Trypanosoma brucei, STIB 795): 5.01 µM

CN(C)c1cc[n+](Cc2c(Cl)cccc2Cl)cc1
IC50 [1]: > 41.7 µM | IC50 ([2]; Trypanosoma brucei, STIB 795): ≤ 0.044 µM

COc1c(S(=O)(=O)c2ccc(C)c(F)c2)cnc2ccc(Cl)cc12
IC50 [1]: > 20.8 µM | IC50 ([2]; Trypanosoma brucei, STIB 795): 3.1 µM

CC(C)(C)C(=O)N1N=C(c2ccc(NS(C)(=O)=O)cc2)CC1c1ccco1 (stereo not drawn)
IC50 [1]: > 20.8 µM | IC50 ([2]; Trypanosoma brucei, STIB 795): 5.6 µM

CCCCOc1ccccc1/C=N/NC(=N)N
IC50 [1]: > 41.7 µM | IC50 ([2]; Trypanosoma brucei, STIB 795): 5.38 µM

O=C(CCN1CCCCC1)Nc1ccc(OC(F)(F)Cl)cc1
IC50 [1]: > 41.7 µM | IC50 [2]: 3.9 µM | IC50 ([2]; Trypanosoma brucei, STIB 795): 4.27 µM

CCc1cc2c(cc1C(C)N)C(C)(C)CCC2(C)C (stereo not drawn)
IC50 [1]: > 20.8 µM | IC50 ([2]; Trypanosoma brucei, STIB 795): 5 µM

O=C(NNc1cccccc1=O)c1ccccc1
IC50 [1]: > 10.4 µM | IC50 ([2]; Trypanosoma brucei, STIB 795): 5.18 µM

Cc1cc(C)c(OCCCCCCN2CCNCC2)c(Br)c1
IC50 [1]: > 20.8 µM | IC50 ([2]; Trypanosoma brucei, STIB 795): 1.02 µM

CC(C)(C)c1ccc(/C=N/n2cnnc2)cc1
IC50 [1]: > 41.7 µM | IC50 ([2]; Trypanosoma brucei, STIB 795): 0.49 µM

CC(=O)C(C(C)=O)C1=CC(=O)C(=O)c2ccccc21
IC50 [1]: > 20.8 µM | IC50 ([2]; Trypanosoma brucei, STIB 795): 7.06 µM

Cc1ncc(CO)c(/C=N/NC(=O)c2ccc(C(C)(C)C)cc2)c1O
IC50 [1]: 6.25 µM | IC50 ([2]; Trypanosoma brucei, STIB 795): 4.26 µM

NS(=O)(=O)c1ccc(/N=N/c2ccc(O)c3ncccc23)cc1
IC50 [1]: > 20.8 µM | IC50 ([2]; Trypanosoma brucei, STIB 795): 4.78 µM

O=C1CC(n2nnn(-c3ccc(OC(F)(F)F)cc3)c2=S)C2COC1O2 (stereo not drawn)
IC50 [1]: > 41.7 µM | IC50 ([2]; Trypanosoma brucei, STIB 795): 4.99 µM

CCN1CCO/C1=C\C=C\C1=[N+](CC)CCO1
IC50 [1]: > 41.7 µM | IC50 ([2]; Trypanosoma brucei, STIB 795): 0.166 µM

Cc1ccc(-n2nnnc2CNC(=O)c2cccs2)cc1C
IC50 [1]: > 41.7 µM | IC50 ([2]; Trypanosoma brucei, STIB 795): 5.85 µM

O=C(N/N=C/c1cc2c3c(c1O)CCCN3CCC2)c1ccncc1
IC50 [1]: > 0.42 µM | IC50 ([2]; Trypanosoma brucei, STIB 795): 0.288 µM

CCN(CC)c1ccc(/C=N\NC(=O)Cn2nnc3ccccc32)c(O)c1
IC50 [1]: > 41.7 µM | IC50 ([2]; Trypanosoma brucei, STIB 795): 0.551 µM

O=C1c2cccc3cccc(c23)C(=O)N1CCNCCO
IC50 [1]: > 4.17 µM | IC50 ([2]; Trypanosoma brucei, STIB 795): 4.5 µM

c1ccc2c(OCCCCCCNCC3CCCO3)cccc2c1 (stereo not drawn)
IC50 [1]: > 41.7 µM | IC50 ([2]; Trypanosoma brucei, STIB 795): 5.25 µM

Cc1ccc(OCCCCCN2CCNCC2)c(C)c1
IC50 [1]: > 41.7 µM | IC50 ([2]; Trypanosoma brucei, STIB 795): 5.38 µM

Oc1c(Cl)cc(CN2CCOCC2)c2cccnc12
IC50 [1]: > 20.8 µM | IC50 [2]: 1.12 µM | IC50 ([2]; Trypanosoma brucei, STIB 795): 0.956 µM

O=C1c2ccccc2C(=O)N1/N=C/c1ccccc1
IC50 [1]: > 41.7 µM | IC50 ([2]; Trypanosoma brucei, STIB 795): 0.727 µM

COc1cccc(C2=NC(c3cccnc3)NC(c3ccccc3O)C2)c1 (stereo not drawn)
IC50 [1]: > 20.8 µM | IC50 ([2]; Trypanosoma brucei, STIB 795): 1.5 µM

CC(C)(C)C1CCc2nc(N)nc(N)c2C1 (stereo not drawn)
IC50 [1]: > 4.17 µM | IC50 ([2]; Trypanosoma brucei, STIB 795): ≤ 3.36 µM

COC(=O)c1ccccc1OCCCON1C(N)=NC(N)=NC1(C)C
IC50 [1]: > 0.42 µM | IC50 ([2]; Trypanosoma brucei, STIB 795): 0.351 µM

O/N=C1C=C/C(=N\O)c2ncccc2/1
IC50 [1]: 4.89 µM | IC50 ([2]; Trypanosoma brucei, STIB 795): 2.32 µM

N#Cc1c(N)nc2[nH]nc(N)c2c1-c1ccccc1
IC50 [1]: > 20.8 µM | IC50 ([2]; Trypanosoma brucei, STIB 795): 3.04 µM

COC12C=CC(CC1)C1C(=O)c3cccc(O)c3C(=O)C12 (stereo not drawn)
IC50 [1]: > 20.8 µM | IC50 ([2]; Trypanosoma brucei, STIB 795): 2.48 µM

C/C(Cl)=C\CN1C(=O)C(=O)c2cc(Cl)ccc21
IC50 [1]: > 41.7 µM | IC50 ([2]; Trypanosoma brucei, STIB 795): 4.87 µM

CN(C)S(=O)(=O)c1ccc(C(=O)Nc2nnc(-c3ccc(F)cc3)o2)cc1
IC50 [1]: > 41.7 µM | IC50 ([2]; Trypanosoma brucei, STIB 795): 4.94 µM

Cn1c(Cl)cnc1C1CC(=O)c2cc(Cl)ccc2O1 (stereo not drawn)
IC50 [1]: > 41.7 µM | IC50 ([2]; Trypanosoma brucei, STIB 795): 0.81 µM

N=C(NOC(=O)N1CCOCC1)c1ccccc1
IC50 [1]: > 4.17 µM | IC50 ([2]; Trypanosoma brucei, STIB 795): 1.19 µM

S=C(N/N=C(/c1ccccc1)c1ccccn1)Nc1ccccc1
IC50 [1]: > 4.17 µM | IC50 ([2]; Trypanosoma brucei, STIB 795): 4.84 µM

CN(C)CCNC(=O)c1ccc(COc2ccc(Cl)cc2Cl)cc1
IC50 [1]: > 20.8 µM | IC50 ([2]; Trypanosoma brucei, STIB 795): 3.41 µM

CCOC(=O)c1ccc(CN2C(=O)C(=O)c3cc(OC(F)(F)F)ccc32)o1
IC50 [1]: > 20.8 µM | IC50 ([2]; Trypanosoma brucei, STIB 795): 4.03 µM

COc1ccc(C(C)(C)C#Cc2c(C)nc(N)nc2N)cc1
IC50 [1]: > 4.17 µM | IC50 ([2]; Trypanosoma brucei, STIB 795): ≤ 3.48 µM

O=C(N/N=C/c1sc2ccccc2c1O)c1ccc(O)cc1O
IC50 [1]: > 4.17 µM | IC50 ([2]; Trypanosoma brucei, STIB 795): 4.44 µM

CC1(C)CC(NC2=C(Cl)C(=O)c3ccccc3C2=O)CC(C)(C)N1
IC50 [1]: 5.07 µM | IC50 ([2]; Trypanosoma brucei, STIB 795): 1.79 µM

CCOC(=O)N/N=C1/c2ccccc2-c2nc3nonc3nc21
IC50 [1]: > 20.8 µM | IC50 ([2]; Trypanosoma brucei, STIB 795): 0.8 µM

Cc1ccc([S@+]([O-])/C(F)=C\c2ccccn2)cc1
IC50 [1]: 5.57 µM | IC50 ([2]; Trypanosoma brucei, STIB 795): 0.903 µM

O=C(NC(c1ccco1)c1cc(Cl)c2cccnc2c1O)c1cccnc1 (stereo not drawn)
IC50 [1]: > 20.8 µM | IC50 ([2]; Trypanosoma brucei, STIB 795): 0.053 µM

CCCC(=O)NC(c1cccc(F)c1)c1ccc2cccnc2c1O (stereo not drawn)
IC50 [1]: > 20.8 µM | IC50 ([2]; Trypanosoma brucei, STIB 795): 7.07 µM

NCC(O)(c1ccc(Cl)cc1)c1ccc(Cl)cc1
IC50 [1]: > 20.8 µM | IC50 [2]: 5.39 µM | IC50 ([2]; Trypanosoma brucei, STIB 795): 5.33 µM

CNC(C)(C)Cc1c2c(cc3c1CCC3)CCC2
IC50 [1]: > 41.7 µM | IC50 ([2]; Trypanosoma brucei, STIB 795): 4.62 µM

Oc1c(C(Nc2nccs2)c2ccccn2)ccc2cccnc12 (stereo not drawn)
IC50 [1]: 4.16 µM | IC50 ([2]; Trypanosoma brucei, STIB 795): 0.973 µM

Cc1ccc(-c2cc(C(F)F)nc(SC3CC(=O)C4OCC3O4)n2)cc1 (stereo not drawn)
IC50 [1]: > 41.7 µM | IC50 [2]: > 10.4 µM and 5.2 µM

CC(C)(C)c1ccc(OCCCCCCN2CCNCC2)cc1
IC50 [1]: > 20.8 µM | IC50 ([2]; Trypanosoma brucei, STIB 795): 0.734 µM

Oc1c(/N=N/c2ccccn2)ccc2ccccc12
IC50 [1]: > 20.8 µM | IC50 ([2]; Trypanosoma brucei, STIB 795): 0.718 µM

Cc1cccc(CN2CCN(Cc3c[nH]c4ccccc34)CC2)c1
IC50 [1]: > 20.8 µM | IC50 ([2]; Trypanosoma brucei, STIB 795): 5.24 µM

O=C(CN1C(=O)S/C(=C/c2ccccc2Cl)C1=O)N1CCOCC1
IC50 [1]: > 41.7 µM | IC50 ([2]; Trypanosoma brucei, STIB 795): 5.03 µM

CCN(CC)CCCCN(CCc1ccccc1)Cc1ccc(O)cc1
IC50 [1]: > 41.7 µM | IC50 ([2]; Trypanosoma brucei, STIB 795): 4.55 µM

Clc1cccc(CNC2=Nc3ccccc3NC23CCNCC3)c1
IC50 [1]: 9.14 µM | IC50 ([2]; Trypanosoma brucei, STIB 795): 1.2 µM
